The values that follow come from patent US20220243177A1, “METHODS OF CULTURING QUIESCENT HEMATOPOIETIC STEM CELLS AND TREATMENT METHODS” (priority 2019, published 2022).

Series [1] relates to MMP-low and MMP-high HSCs (LSKCD150+CD48-). In words: Single cell division assay. The series is classed as cell-based, mouse. Conditions: for Number of wells with each number of cell division: 0 / Number of wells with each number of cell division: 1 / Number of wells with each number of cell division: Dead / Number of wells with each number of cell division: ≥2: 60 h. How it is done:
Single Cell Division Assay: Single cell cultures were carried out as previously described (Bernitz et al., “Hematopoietic Stem Cells Count and Remember Self-Renewal Divisions,” Cell 167(5): 1296-1309 (2016), which is hereby incorporated by reference in its entirety). Single MMP-low and MMP-high HSCs (LSKCD150^+CD48^−) isolated from GFP-transgenic mice were FACS sorted into individual wells of round-bottomed 96-well plates. Single cells were visually confirmed under light microscope and cultured in serum free Stemspan medium. Wells were supplemented with SCF (100 ng/ml) and TPO (20 ng/ml) (both from R&D system), were incubated at 37° C. in a humidified atmosphere with 5% CO2, and the number of cells per well was monitored daily. The final number of cell divisions per well was assessed at the indicated time points in each experiment. Treatments with concanamycin A (“ConA”) (40-100 nM) or DMSO control were added at the start of culture and left in the wells for the duration of the experiment unless otherwise stated. More than 200 cells per condition were analyzed. Cell Cycle Analysis—Pyronin Y staining. Pyronin Y staining was performed as described in Rimmele et al., “Mitochondrial Metabolism in Hematopoietic Stem Cells Requires Functional FOXO3,” EMBO Rep. 16: 1164-1176 (2015) and Yalcin et al., “Foxo3 Is Essential for the Regulation of Ataxia Telangiectasia Mutated and Oxidative Stress-mediated Homeostasis of Hematopoietic Stem Cells,” J. Biol. Chem. 283: 25692-25705 (2008), which are hereby incorporated by reference in their entirety. FACS-purified MMP-low and MMP-high LT-HSCs were stained with Hoechst 33342 ([…]) at 37° C. for 45 minutes, followed by staining with pyronin Y (1 mg/ml) for an additional 15 minutes at 37° C. Cells were then washed in cold PBS, and resuspended in IMDM+2% FBS. Samples were immediately analyzed by flow cytometry.

Series [2] deals with MMP-low and MMP-high HSCs. Put plainly: Glucose uptake assay (2NBDG). To be noted: ConA (25 nM, 50 nM), 18 hours. The series is classed as cell-based, mouse. How it is done: Glucose Uptake Assay: For measurement of glucose uptake, freshly FACS-purified MMP-low and MMP-high HSCs (at least 2,000 cells pooled in average from 8 mice) were cultured immediately in […] of glucose, glutamine, pyruvate free medium containing 100 or 200 μM 2-(n-(7-nitrobenz-2-oxa-1,3-diazol-4-yl amino)-2-deoxyglucose (2-NBD-Glucose, 2NBDG) for 2 hours. Cells were then washed multiple times in PBS, re-suspended in PBS containing 1 μg/ml DAPI, and analyzed by flow cytometry for 2-NBD glucose fluorescence in the FITC channel. In some experiments cells were cultured in StemSpan medium (StemCell Technology) supplemented with SCF (100 ng/ml) and TPO (20 ng/ml), treated with or without STF-31 ([…]), ConA (25, 50 nM), dimethyl alpha ketoglutarate (MOG, 1 mM), methyl pyruvate (MP, 1 mM) or DMSO, incubated at 37° C. in a humidified atmosphere with 5% CO2 for 6 or 18 hours before removing culture medium from each well, washing extensively and adding […] of glucose, glutamine, pyruvate free medium containing […] of 2 NBDG for 2 hours before washing cells multiple times in PBS and analyzing by flow cytometry. Quantification of 2NBDG uptake was measured by the geometric mean fluorescence intensity (“MFI”) as well as % of 2NBDG^+ cells.

Series [3] deals with MMP-low and MMP-high LT-HSCs transplanted into lethally irradiated mice. In words: Competitive in vivo long-term reconstitution assay after ex vivo lysosomal inhibition. More on the design: species or system mouse. How it is done: Competitive In Vivo Long-Term Reconstitution Assay: MMP-low and MMP-high HSCs (LSKCD150^+CD48^−, LT-HSC; MMP^low/high) were FACS purified from CD45.1 mice and transplanted at the indicated dose of test cells with 2×10^5 CD45.2 bone marrow cells into lethally irradiated CD45.2 recipients (12 Gy as a split dose, 6.5 and 5.5 Gy, 4 hours apart). Donor (CD45.1) and recipient (CD45.2) mice were 8-12 weeks old. HSC frequency was determined by the limiting dilution assay (Hu & Smith, “ELDA: Extreme Limiting Dilution Analysis for Comparing Depleted and Enriched Populations in Stem Cell and Other Assays,” J. Immunol. Methods 347:7 0-78 (2009), which is hereby incorporated by reference in its entirety) based on the number of mice with […] reconstitution (CD45.1) at 16 weeks.
To assay the effect of HSC lysosomal inhibition in a in vivo competitive long-term reconstitution assay: FACS-sorted MMP-low and -high LT-HSCs (CD45.1) were treated with Concanamycin A (ConA,40 nM) or DMSO control in 96 well plates containing StemSpan with SCF (100 ng/ml) and TPO (20 ng/ml) for 4 days, after which 50 cells from each group were mixed with 2×10^5 CD45.2 total bone marrow cells and injected into lethally irradiated CD45.2 recipients and reconstituted peripheral blood was monitored up to four months.

Series [4] has as its system MMP-low and MMP-high HSCs of CAG-RFP-EGFP-LC3 bone marrow. Put plainly: CAG-RFP-EGFP-LC3 assay. It counts as cell-based, mouse. Conditions: ConA 40 nM, 3 hours; superior to starving condition. How it is done: CAG-RFP-EGFP-LC3 Assay. Total BM cells from CAG-RFP-EGFP-LC3 mice were cultured in StemSpan with SCF (10 ng/mL) and TPO (20 ng/mL) at 8×10^6 cells/ mL. Cells were either incubated with ConA (40 nM), chloroquine (CQ, […]), leupeptin ([…]) or DMSO control, or -starved amino acid-depleted RPMI 1640 media for 3 hours to induce autolysosome accumulation. Both GFP and mRFP are expressed in a single transgene, both green and red fluorescence is emitted from the same LC3 molecule, with 1:1 stoichiometry, thus allowing a more-accurate quantification of autophagosomes and autolysosomes measured by flow cytometry 3 hours post-treatment. Given the fluorescent incompatibility, only frequency of HSC with autophagosome (RFP^+GFP^+-LC3) or autolysosome formation (RFP^+-LC3) normalized to conditions with MMP-low against MMP-high HSCs was determined.

Setting [5] is: aging HSCs, ConA 40 nM, 60-hour.
[6] abbreviates: ConA 40 nM ex vivo 4 days, 50 cells transplanted.

The structures appear in SMILES notation.

Turning to `C/C=C/[C@H]1O[C@@](O)([C@@H](C)[C@H](O)[C@H](C)[C@H]2OC(=O)/C(OC)=C/C(C)=C/[C@@H](C)[C@@H](O)[C@@H](CC)[C@@H](O)[C@H](C)C/C(C)=C/C=C/[C@@H]2OC)C[C@@H](O[C@H]2C[C@@H](O)[C@H](OC(N)=O)[C@@H](C)O2)[C@@H]1C` [ConA, concanamycin A], in series [1] (ConA 40 nM, up to 60 hours), the “frequency of non-dividing MMP-high GFP+ HSCs” value is listed as “significantly increased” and the “non-dividing MMP-low HSCs in culture” value is “only a slight effect”. Besides, in series [1] (MMP High + Con A (40 nM)), the “Number of wells with each number of cell division: 0” value turned out to be 23.8 ± 1.33, the “Number of wells with each number of cell division: 1” value was found to be 8.8 ± 0.84, the “Number of wells with each number of cell division: Dead” value stood at 14.4 ± 0.92 and the “Number of wells with each number of cell division: ≥2” value is 7.4 ± 2.62. Also, in series [1] (MMP Low + Con A (40 nM)), the “Number of wells with each number of cell division: 0” value was 35.8 ± 8.89, the “Number of wells with each number of cell division: 1” value is recorded as 7.4 ± 1.24, the “Number of wells with each number of cell division: Dead” value was found to be 7 ± 1.51 and the “Number of wells with each number of cell division: ≥2” value was found to be 4.6 ± 1.53. In series [1] (setting [5]), the “cell death of aging HSC in culture” value is “without any increase in cell death” and the “division of aging HSC in culture” value is reported as “divided less than non-treated HSC”. Further, in series [2], the “decrease of glucose uptake in MMP-high HSCs” value was 19 fold; the “effect on reducing the viability under the glucose uptake condition” value was “mostly restricted to MMP-high and subtle in MMP-low HSCs”. In addition, the “blood production in secondary transplants” value in series [3] (38 weeks post-initial transplantation) is “increased balanced blood production”. Moreover, in series [3] (ConA 40 nM ex vivo 4 days), the “production of lineages downstream of MMP-high HSCs” value is “balanced the production of lineages”. Moreover, in series [3] (setting [6]), the “increase of in vivo competitive repopulation ability, MMP-high HSCs” value is given as “over 90 fold” and the “increase of in vivo competitive repopulation ability, MMP-low HSCs” value came to 9 fold. Also, the “HSC self-renewal in secondary transplantations” value in series [3] (young HSCs, ex vivo ConA) is reported as “increased HSC self-renewal”. The “frequency of autolysosome (RFP+)-accumulated MMP-high and MMP-low HSCs” value in series [4] is on record as “specifically promoted the frequency”.
